Experiments:
Type in all cases: binding
panel of 442 kinases [1] = biological target: T1, panel of 442 kinases (Homo sapiens, UniProt P11362); details: Compound Concentration 10 µM
T1 construct: purchased KINOMEscan
Excerpt: (§1) We assessed the selectivity of members of this scaffold using the KINOMEscan methodology across a near comprehensive panel of 442 kinases [[18,27]].

panel of 442 kinases [2] = biological target: T2, panel of 442 kinases (Homo sapiens, UniProt P35968); details: kinase VEGFR2; compound concentration 10 µM
T2 construct: purchased KINOMEscan
Excerpt: as §1

panel of 442 kinases [3] = biological target: T3, panel of 442 kinases (Homo sapiens, UniProt P36896); details: Compound Concentration 10 µM
T3 construct: purchased KINOMEscan
T3 sequence (P36896 24-505): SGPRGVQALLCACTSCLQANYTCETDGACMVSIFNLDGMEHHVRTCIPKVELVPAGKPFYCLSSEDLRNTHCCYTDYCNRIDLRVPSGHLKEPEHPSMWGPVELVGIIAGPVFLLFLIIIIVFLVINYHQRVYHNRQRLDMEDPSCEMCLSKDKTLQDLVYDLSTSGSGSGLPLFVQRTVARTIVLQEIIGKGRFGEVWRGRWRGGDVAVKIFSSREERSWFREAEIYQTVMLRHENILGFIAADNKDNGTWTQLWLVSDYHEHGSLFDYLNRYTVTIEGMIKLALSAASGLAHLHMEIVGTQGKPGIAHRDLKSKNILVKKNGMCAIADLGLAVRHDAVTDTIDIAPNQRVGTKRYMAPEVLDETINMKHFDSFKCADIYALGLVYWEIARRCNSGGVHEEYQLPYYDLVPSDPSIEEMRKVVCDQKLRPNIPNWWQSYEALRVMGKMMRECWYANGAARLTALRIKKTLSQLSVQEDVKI
Excerpt: as §1

T2 sequence (P35968 20-1356): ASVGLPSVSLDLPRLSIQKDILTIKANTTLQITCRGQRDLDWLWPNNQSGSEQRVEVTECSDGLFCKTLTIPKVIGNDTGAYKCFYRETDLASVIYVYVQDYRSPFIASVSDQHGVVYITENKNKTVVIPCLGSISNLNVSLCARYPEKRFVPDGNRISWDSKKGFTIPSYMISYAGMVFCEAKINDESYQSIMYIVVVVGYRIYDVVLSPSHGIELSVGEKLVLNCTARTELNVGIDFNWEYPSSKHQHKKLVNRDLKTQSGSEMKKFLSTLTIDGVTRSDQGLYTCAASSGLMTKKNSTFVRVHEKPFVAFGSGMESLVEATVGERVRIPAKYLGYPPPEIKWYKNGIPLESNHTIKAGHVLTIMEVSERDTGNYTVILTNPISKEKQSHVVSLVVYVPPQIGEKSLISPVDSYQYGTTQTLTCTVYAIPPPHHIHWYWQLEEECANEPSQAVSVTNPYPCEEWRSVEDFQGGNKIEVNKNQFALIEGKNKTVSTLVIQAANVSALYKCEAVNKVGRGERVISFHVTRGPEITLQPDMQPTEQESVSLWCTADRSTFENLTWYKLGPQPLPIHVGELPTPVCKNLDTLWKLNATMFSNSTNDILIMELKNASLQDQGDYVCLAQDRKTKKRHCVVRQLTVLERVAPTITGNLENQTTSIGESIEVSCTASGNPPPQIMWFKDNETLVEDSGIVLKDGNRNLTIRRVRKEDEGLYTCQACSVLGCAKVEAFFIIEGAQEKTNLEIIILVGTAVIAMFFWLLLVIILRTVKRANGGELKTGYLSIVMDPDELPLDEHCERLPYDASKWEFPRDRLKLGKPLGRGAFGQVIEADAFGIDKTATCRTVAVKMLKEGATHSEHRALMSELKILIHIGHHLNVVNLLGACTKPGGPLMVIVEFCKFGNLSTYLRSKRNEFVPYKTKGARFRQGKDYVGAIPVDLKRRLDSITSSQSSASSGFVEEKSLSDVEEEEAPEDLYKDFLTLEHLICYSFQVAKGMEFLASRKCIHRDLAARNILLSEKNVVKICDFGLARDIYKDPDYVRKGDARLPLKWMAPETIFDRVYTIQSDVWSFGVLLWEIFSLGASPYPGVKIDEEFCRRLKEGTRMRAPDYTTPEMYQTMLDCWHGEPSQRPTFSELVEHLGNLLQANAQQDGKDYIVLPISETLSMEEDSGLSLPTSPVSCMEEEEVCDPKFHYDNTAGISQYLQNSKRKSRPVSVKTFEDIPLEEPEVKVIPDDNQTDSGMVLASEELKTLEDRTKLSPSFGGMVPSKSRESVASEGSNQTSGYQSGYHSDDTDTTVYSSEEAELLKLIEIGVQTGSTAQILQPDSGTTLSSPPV
T1 sequence (P11362 22-822): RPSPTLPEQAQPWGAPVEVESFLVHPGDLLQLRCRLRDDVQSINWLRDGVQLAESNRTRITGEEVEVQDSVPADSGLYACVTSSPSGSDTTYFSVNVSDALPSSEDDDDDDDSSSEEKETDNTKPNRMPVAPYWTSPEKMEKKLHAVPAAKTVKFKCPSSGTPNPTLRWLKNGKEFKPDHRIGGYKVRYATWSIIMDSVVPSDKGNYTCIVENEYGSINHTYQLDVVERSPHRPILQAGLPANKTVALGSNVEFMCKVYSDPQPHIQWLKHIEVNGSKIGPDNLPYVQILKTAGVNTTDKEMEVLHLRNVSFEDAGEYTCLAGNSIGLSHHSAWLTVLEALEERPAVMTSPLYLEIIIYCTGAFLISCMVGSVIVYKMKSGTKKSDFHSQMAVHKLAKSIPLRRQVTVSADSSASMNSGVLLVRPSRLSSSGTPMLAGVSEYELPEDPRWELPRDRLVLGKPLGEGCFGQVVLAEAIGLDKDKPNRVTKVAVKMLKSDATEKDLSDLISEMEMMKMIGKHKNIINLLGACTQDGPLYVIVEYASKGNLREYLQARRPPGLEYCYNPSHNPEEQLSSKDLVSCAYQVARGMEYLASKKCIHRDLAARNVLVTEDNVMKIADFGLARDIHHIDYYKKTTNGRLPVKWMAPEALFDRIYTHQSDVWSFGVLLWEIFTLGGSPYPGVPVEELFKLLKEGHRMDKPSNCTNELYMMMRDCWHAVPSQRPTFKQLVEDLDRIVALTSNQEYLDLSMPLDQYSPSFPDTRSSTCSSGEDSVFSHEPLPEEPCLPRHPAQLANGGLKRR

| SMILES | KINOMEscan: FGFR1 (panel of 442 kinases [1]) | % Ctrl, VEGFR2 (panel of 442 kinases [2]) [% Ctrl] | KINOMEscan: ACVR1B (panel of 442 kinases [3]) |
| --- | --- | --- | --- |
| COc1cc(C(=O)N2CCC(N3CCN(C)CC3)CC2)ccc1Nc1ncc2c(n1)N(C1CCCC1)c1ccccc1C(=O)N2C [Compound 25, 11-cyclopentyl-2-((2-methoxy-4-(4-(4-methylpiperazin-1-yl)piperidine-1-carbonyl)phenyl)amino)-5-methyl-5H-benzo[e]pyrimido[5,4-b][1,4]diazepin-6(11H)-one] | 100 | 100 | 97 |
| CCOc1cc(C(=O)N2CCC(N3CCN(C)CC3)CC2)ccc1Nc1ncc2c(n1)N(C1CCCC1)c1ccccc1C(=O)N2C [Compound 26] | 100 | 100 | 100 |
| COc1cc(C(=O)N2CCC(N3CCN(C)CC3)CC2)ccc1Nc1ncc2c(n1)N1CCc3cccc(c31)C(=O)N2C [Compound 24] | 83 | 100 | – |
| COc1cc(C(=O)N2CCC(N3CCN(C)CC3)CC2)ccc1Nc1ncc2c(n1)N(C)c1ccccc1C(=O)N2C [15 (LRRK2-IN-1)] | 86 | 84 | 100 |

— publication PMC3914206
